{"source": "patent US4537774A", "about": "“Hot-water extracts of neem bark” (priority 1980, dated 1985)", "key": {"[1]": {"tested_on": "sarcoma 180 ascites tumor", "test": "Effects on sarcoma 180 ascites tumor (Test III)", "format": "in vivo, mouse", "conditions": "for Rating / T/C (%): Table III, i.p.; for T/C (%): TPCV ratio", "description": "A portion of each of the extraction fractions was suspended or dissolved in 0.5% suspension of carboxymethylcellulose (CMC) in a phosphate buffer saline solution (PBS commercially available from GIBCO Laboratories, containing ca. 9.5 mM phosphate) to a predetermined concentration.\nMouse sarcoma 180 tumor cells which have been subcultivated intraperitoneally in ICR mice were drawn from the mouse together with the ascites and diluted with physiological saline solution to a cell count of 10^8 per ml. The tumor cell suspension thus prepared was transplanted by means of a syringe intraperitoneally into 4 week-old male ICR mice at a dose of 0.1 ml. Consequently, the cell count transplanted per mouse was 1×10^7.\nThe test material as prepared above was intraperitoneally administered at a dose of 0.1 ml. per mouse for 4 days once a day from the next day of the transplantation of mouse sarcoma 180 tumor cells. A group of 6 mice was employed for each concentration of each test material. […] As a control was administered the CMC-containing PBS as described above only in the same way as above. The dose is expressed as weight per kg. bodyweight of mouse.\nOn the 7th day of transplantation of the tumor cells bodyweight of each mouse was measured (X). Then, ascites was thoroughly drawn from the mouse, followed by measurement of the bodyweight (Y). X-Y is taken as the amount of ascites.\nThe drawn ascites was then introduced into a hematocrit tube and then centrifuged at 15,000 G for 5 minutes using a hematocrit rotor at a low temperature. There was thus made determination of the ascitocrit value, that is, proportion of the cells present in the ascites which corresponded to the hematocrit value in hematology. The value multiplied by volume of the ascites gives the volume of the cells present in the ascites. This is designated as total packed cell volume (TPCV).\nEffect on the tumor was rated ineffective (-) when the TPCV ratio of the treated to the control (T/C) was 100-66%, plus 1 (+) when it was 65-41%, plus 2 (++) when it was 40-11%, and plus 3 (+++) when it was 10-0%.\n(§1) The neem extracts produced in the above examples were tested for effects on sarcoma 180 ascites and solid tumors according to the methods described in the aforementioned Tests."}, "sarcoma 180 solid tumor": {"tested_on": "sarcoma 180 solid tumor", "test": "Effects on sarcoma 180 solid tumor (Test IV)", "format": "in vivo, mouse", "conditions": "for Rating / T/C (%): Table IV; for T/C (%): tumor weight ratio", "description": "Test materials were prepared in the same manner as in Test III under (1).\nA cell suspension containing 1×10^8 cells per ml. was prepared in the same way as in Test III under (2). Four week old-ICR mice was innoculated subcutaneously on the back with 0.1 ml. of the suspension by means of a syringe.\nAs in Test III under (3), a group of 6 animals was used for each concentration of each test material.\nGrown tumor tissue was resected on the […] of the tumor cell transplantation and weighed. An average for the group of 6 animals was taken for the evaluation. The effect was evaluated on the basis of ratio of the average weight for the treated animals to that of the control animals (T/C). […] Ratios (T/C) of 100-71% were rated ineffective (-), of 70-51% plus 1 (+), of 50-21% plus 2 (++), and of 20-0% plus 3 (+++).\nas §1"}, "mouse L-5178Y cells": {"tested_on": "mouse L-5178Y cells", "test": "Effects on mouse L-5178Y cells (Test II)", "format": "cell-based", "description": "A medium containing 1×10^5 cells/ml. was prepared using mouse L-5178Y cells cultivated on RPMI-1640 medium containing 10% fetal bovine serum for 3 days. The medium was placed in a 96-well U-type microplate in an amount of 50 μl. per well.\nA portion of the test material, which was one of the extracts according to the invention described in the above examples, was dissolved in the medium to a final concentration in the medium as shown in Table II below. The amount of the solution per well was 50 μl. The test material thus prepared was incubated in a carbon-dioxide incubator at 37° C. for 2 days. After completion of the incubation, the cells were collected and counted well by well, and the cell counts were compared with cell count of control which contained no test material. The cell count of control was approximately 8.6×10^5 /ml. In order to confirm the effects of the test materials, the same test was done with mitomycin C (MMC) or bleomycin (BLM). In the table below, T/C represents the ratio of count of the cells treated with the test material to that with no test material added. ID50 is the concentration of the test material required for decreasing concentration of the cells to 1/2 that of the control."}, "[2]": {"conditions": "dose 0.1 μg./kg. (so in the source)"}, "[3]": {"conditions": "dose 33 μg./kg. (so in the source)"}, "[4]": {"conditions": "dose 20 μg./kg. (so in the source)"}, "[5]": {"conditions": "dose 0.5 μg./kg. (so in the source)"}, "[6]": {"conditions": "dose 1.5 μg./kg. (so in the source)"}, "[7]": {"conditions": "Tables V/VII, mice, 1.5 mg./kg."}, "[8]": {"conditions": "dose 10 μg./kg. (so in the source)"}}, "note": "Starred links: 1 amine or outer side, 2 acyl side, 3 side chain; linkers in the order of their positions; H or OH if unused. Positions of bridges follow the written chain, without caps; N, C: chain ends. Non-standard residues stand in square brackets, D forms with d. Residues, ends and D or L forms follow the SMILES beside them. Chains are numbered I, II in the order given. Actinocin(9to1) = Cc1c2oc3c(C)ccc(C(=O)[*:1])c3nc-2c(C(=O)[*:2])c(N)c1=O; NMeV = CN[C@H](C(=O)O)C(C)C; Sar = CNCC(=O)O", "data": [{"molecule": "Cc1c2oc3c(C)ccc(C(=O)N[C@@H]4C(=O)N[C@H](C(C)C)C(=O)N5CCC[C@H]5C(=O)N(C)CC(=O)N(C)[C@@H](C(C)C)C(=O)O[C@@H]4C)c3nc-2c(C(=O)N[C@@H]2C(=O)N[C@H](C(C)C)C(=O)N3CCC[C@H]3C(=O)N(C)CC(=O)N(C)[C@@H](C(C)C)C(=O)O[C@@H]2C)c(N)c1=O", "note": "[ACD, actinomycin D] (I: T[dV]P[Sar][NMeV] / II: T[dV]P[Sar][NMeV]; ester I:1-I:C, II:1-II:C; linker I:N-II:N via Actinocin(9to1))", "values": [{"measurement": "Rating", "setting": "[1]; [2]", "value": "+++ (plus 3 (+++) when it was 10-0%)"}, {"measurement": "T/C (%)", "setting": "[1]; [2]", "value": 0, "unit": "%"}, {"measurement": "Rating", "setting": "sarcoma 180 solid tumor; dose 0.1 mg./kg.", "value": "- (Ratios (T/C) of 100-71% were rated ineffective (-))"}, {"measurement": "T/C (%)", "setting": "sarcoma 180 solid tumor; dose 0.1 mg./kg.", "value": 102.4, "unit": "%"}]}, {"molecule": "O=P1(N(CCCl)CCCl)NCCCO1", "note": "(stereo not drawn) [CYP, cyclophosphamide]", "values": [{"measurement": "Rating", "setting": "[1]; [3]", "value": "+++ (plus 3 (+++) when it was 10-0%)"}, {"measurement": "T/C (%)", "setting": "[1]; [3]", "value": 0, "unit": "%"}, {"measurement": "Rating", "setting": "sarcoma 180 solid tumor; dose 33 mg./kg.", "value": "+++ (of 20-0% plus 3 (+++))"}, {"measurement": "T/C (%)", "setting": "sarcoma 180 solid tumor; dose 33 mg./kg.", "value": 0, "unit": "%"}]}, {"molecule": "O=c1[nH]cc(F)c(=O)[nH]1", "note": "[Example 5-Fu, 5-fluorouracil]", "values": [{"measurement": "Rating", "setting": "[1]; [4]", "value": "+++ (plus 3 (+++) when it was 10-0%)"}, {"measurement": "T/C (%)", "setting": "[1]; [4]", "value": 0, "unit": "%"}, {"measurement": "Rating", "setting": "sarcoma 180 solid tumor; dose 20 mg./kg.", "value": "+ (of 70-51% plus 1 (+))"}, {"measurement": "T/C (%)", "setting": "sarcoma 180 solid tumor; dose 20 mg./kg.", "value": 47.8, "unit": "%"}]}, {"molecule": "CO[C@@]12[C@H](COC(N)=O)C3=C(C(=O)C(C)=C(N)C3=O)N1C[C@@H]1N[C@@H]12", "note": "[MMC, mitomycin C]", "values": [{"measurement": "Rating", "setting": "[1]; [5]", "value": "+++ (plus 3 (+++) when it was 10-0%)"}, {"measurement": "T/C (%)", "setting": "[1]; [5]", "value": 0, "unit": "%"}, {"measurement": "Rating", "setting": "[1]; [6]", "value": "+++ (plus 3 (+++) when it was 10-0%)"}, {"measurement": "T/C (%)", "setting": "[1]; [6]", "value": 0, "unit": "%"}, {"measurement": "Ascites tumor Rating", "setting": "[1]; [7]", "value": "+++ (plus 3 (+++) when it was 10-0%)"}, {"measurement": "Ascites tumor T/C", "setting": "[1]; [7]", "value": 0}, {"measurement": "Rating", "setting": "sarcoma 180 solid tumor; dose 0.5 mg./kg.", "value": "- (Ratios (T/C) of 100-71% were rated ineffective (-))"}, {"measurement": "T/C (%)", "setting": "sarcoma 180 solid tumor; dose 0.5 mg./kg.", "value": 71.0, "unit": "%"}, {"measurement": "Rating", "setting": "sarcoma 180 solid tumor; dose 1.5 mg./kg.", "value": "++ (of 50-21% plus 2 (++))"}, {"measurement": "T/C (%)", "setting": "sarcoma 180 solid tumor; dose 1.5 mg./kg.", "value": 32.5, "unit": "%"}, {"measurement": "Solid tumor Rating", "setting": "sarcoma 180 solid tumor; [7]", "value": "++ (of 50-21% plus 2 (++))"}, {"measurement": "Solid tumor T/C", "setting": "sarcoma 180 solid tumor; [7]", "value": 38.9}, {"measurement": "IC50", "setting": "mouse L-5178Y cells; Mus musculus, L5178Y, 48 h, read-out: ID50", "value": 0.09, "unit": "µg/mL"}]}, {"molecule": "bleomycin [BLM]", "values": [{"measurement": "Rating", "setting": "[1]; [8]", "value": "+++ (plus 3 (+++) when it was 10-0%)"}, {"measurement": "T/C (%)", "setting": "[1]; [8]", "value": 0, "unit": "%"}, {"measurement": "Rating", "setting": "sarcoma 180 solid tumor; dose 10 mg./kg.", "value": "++ (of 50-21% plus 2 (++))"}, {"measurement": "T/C (%)", "setting": "sarcoma 180 solid tumor; dose 10 mg./kg.", "value": 43.5, "unit": "%"}, {"measurement": "ID50", "setting": "mouse L-5178Y cells; 37° C., 2 days", "value": 7.8, "unit": "µg/mL"}]}]}
